# Test results from patent publication US20230331718A1, “COMPOSITIONS FOR MODULATING SPLICING” (Skyhawk Therapeutics, Inc., priority 2020, published 2023).
# What was measured:
# SMN2 Protein = experiment: SMN Protein Assay (MSD); type: cell-based, human; conditions: SMA patient fibroblasts, 48 hours, 0.6 nM to 2.5 µM
# Procedure, shortened: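 SMA patient fibroblasts at 7,000 cells/well treated 48 h with compound from 0.6 nM to 2.5 µM, then lysed. SMN protein in lysate quantified by Mesoscale Discovery immunoassay against an SMN standard curve (19.5 pg/ml–1 µg/ml), giving absolute amounts.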
# [1] = system: SMN2 Splicing D7 (SMN Δ7 transcript); experiment: SMN Quantitative Splicing Assay (qPCR); type: cell-based, human; conditions: 24 h, SMA patient fibroblasts (GM03813), 2.5 µM to 0.6 nM
# Protocol: Spinal muscular atrophy (SMA) patient fibroblasts (GM03813, Coriell) were plated in 96-well plates at 50,000 cells/well. […] Treated cells were lysed and cDNA synthesized using the Fast Advanced Cells-to-Ct kit (Thermofisher A35378) according to the manufacturer’s instructions. 2 µL of each cDNA were used in qPCR reactions. […] Reactions were run in a Quant Studio 6 qPCR instrument with default settings.
compound,measurement,setting,value
CN(c1cnc(-c2cc3ccn(C)c(=O)c3cc2O)nn1)C1CC2COCC(C1)N2 (stereo not drawn) [Compound 147],EC50,SMN2 Protein,0.01 to 15 nM
same,IC50,"[1]; Homo sapiens, Fibroblast",0.01 to 15 nM
Cc1coc2cc(-c3ncc(N(C)C4CC5CCC(N5)[C@H]4F)nn3)c(O)cc2c1=O (stereo partly drawn) [Compound 28],EC50,SMN2 Protein,0.01 to 15 nM
same,IC50,"[1]; Homo sapiens, Fibroblast",0.01 to 15 nM
CN(c1cnc(-c2cc3cnn(C)c(=O)c3cc2O)nn1)[C@@H]1C[C@@]2(C)CC[C@H](N2)[C@@H]1F [Compound 186],EC50,SMN2 Protein,0.01 to 15 nM
same,IC50,"[1]; Homo sapiens, Fibroblast",16 to 50 nM
CN(c1cnc(-c2cc3ccn(C)c(=O)c3cc2O)nn1)[C@H]1C[C@@H]2CC[C@@](C)(N2)[C@H]1F [Compound 171],EC50,SMN2 Protein,0.01 to 15 nM
same,IC50,"[1]; Homo sapiens, Fibroblast",0.01 to 15 nM
[2H]C([2H])([2H])n1ccc2cc(-c3ncc(N(C)[C@H]4CC5CCC(N5)[C@H]4F)nn3)c(O)cc2c1=O (stereo partly drawn) [Compound 157],EC50,SMN2 Protein,16 to 50 nM
same,IC50,"[1]; Homo sapiens, Fibroblast",16 to 50 nM
[2H]C([2H])([2H])n1nc(F)c2cc(-c3ncc(N(C)[C@H]4C[C@@H]5CCC(N5)[C@H]4F)nn3)c(O)cc2c1=O [Compound 191],EC50,SMN2 Protein,0.01 to 15 nM
same,IC50,"[1]; Homo sapiens, Fibroblast",0.01 to 15 nM
CN(c1cnc(-c2cc3cnn(C)c(=O)c3cc2O)nn1)C1CC2CCCC(N2)C1F (stereo not drawn) [Compound 131],EC50,SMN2 Protein,0.01 to 15 nM
same,IC50,[1],0.01 to 15 nM
CN(c1cnc(-c2cc3ccn(C(F)F)c(=O)c3cc2O)nn1)[C@H]1CC2CCC(N2)[C@H]1F (stereo partly drawn) [Compound 155],EC50,SMN2 Protein,0.01 to 15 nM
same,IC50,"[1]; Homo sapiens, Fibroblast",0.01 to 15 nM
[2H]C([2H])([2H])n1cnc2cc(-c3ncc(N(C)[C@H]4C[C@@H]5CCC(N5)[C@H]4F)nn3)c(O)cc2c1=O [Compound 177],EC50,SMN2 Protein,0.01 to 15 nM
same,IC50,"[1]; Homo sapiens, Fibroblast",0.01 to 15 nM
CN(c1cnc(-c2cc3c(=O)n(C)ccc3cc2O)nn1)[C@@H]1CC2CC[C@H](N2)[C@@H]1F [Compound 81],EC50,SMN2 Protein,16 to 50 nM
same,IC50,"[1]; Homo sapiens, Fibroblast",51 to 100 nM
CN(c1cnc(-c2cc3ccn(C)c(=O)c3cc2O)nn1)[C@H]1C[C@]2(C)COC[C@](C)(C1)N2 [Compound 152],EC50,SMN2 Protein,0.01 to 15 nM
same,IC50,"[1]; Homo sapiens, Fibroblast",0.01 to 15 nM
Cc1cc2cc(O)c(-c3ncc(N(C)[C@@H]4CC5CCC[C@H](N5)[C@@H]4F)nn3)cc2cn1 [Compound 77],EC50,SMN2 Protein,16 to 50 nM
same,IC50,"[1]; Homo sapiens, Fibroblast",16 to 50 nM
Cc1cc(=O)c2cc(O)c(-c3ncc(N(C)[C@H]4CC5CCC[C@@H](N5)[C@H]4F)nn3)cc2o1 [Compound 127],EC50,SMN2 Protein,0.01 to 15 nM
same,IC50,"[1]; Homo sapiens, Fibroblast",0.01 to 15 nM
CN(c1cnc(-c2cc3cnn(C)c(=O)c3cc2O)nn1)C1CC2CCC(C)(N2)C1F (stereo not drawn) [Compound 184],EC50,SMN2 Protein,0.01 to 15 nM
same,IC50,"[1]; Homo sapiens, Fibroblast",0.01 to 15 nM
CN(c1cnc(-c2cc3ccncc3cc2O)nn1)C1CC2CCC(N2)C1F (stereo not drawn) [Compound 21],EC50,SMN2 Protein,16 to 50 nM
same,IC50,"[1]; Homo sapiens, Fibroblast",101 to 500 nM
CN(c1cnc(-c2cc3occ(C(F)(F)F)c(=O)c3cc2O)nn1)[C@@H]1C[C@H]2CC[C@H](N2)[C@@H]1F [Compound 89],EC50,SMN2 Protein,51 to 100 nM
same,IC50,"[1]; Homo sapiens, Fibroblast",101 to 500 nM
CN(c1cnc(-c2cc3ccn(C)c(=O)c3cc2O)nn1)[C@@H]1C[C@@]2(C)CC[C@H](N2)[C@@H]1F [Compound 174],EC50,SMN2 Protein,0.01 to 15 nM
same,IC50,"[1]; Homo sapiens, Fibroblast",0.01 to 15 nM
"CN(c1cnc(-c2cc3cnn(C)c(=O)c3cc2O)nn1)[C@@H]1CC2CCC(N2)[C@@H]1F (single isomer, unassigned) [Compound 2A]",EC50,SMN2 Protein,0.01 to 15 nM
same,IC50,"[1]; Homo sapiens, Fibroblast",0.01 to 15 nM
CN(c1cnc(-c2cc3ncn(C)c(=O)c3cc2O)nn1)C1CC2CC[C@@](C)(N2)[C@H]1F (stereo partly drawn) [Compound 136],EC50,SMN2 Protein,0.01 to 15 nM
same,IC50,"[1]; Homo sapiens, Fibroblast",0.01 to 15 nM
CN(c1cnc(-c2cc3cc[nH]c(=O)c3cc2O)nn1)[C@H]1C[C@@H]2CCC(N2)[C@H]1F [Compound 169],EC50,SMN2 Protein,0.01 to 15 nM
same,IC50,"[1]; Homo sapiens, Fibroblast",16 to 50 nM
CN(c1cnc(-c2cc3c(F)cn(C)c(=O)c3cc2O)nn1)[C@H]1C[C@]2(C)CCC(N2)[C@H]1F [Compound 38],EC50,SMN2 Protein,0.01 to 15 nM
same,IC50,"[1]; Homo sapiens, Fibroblast",0.01 to 15 nM
[2H]C([2H])([2H])N(c1cnc(-c2cc3c(F)cn(C([2H])([2H])[2H])c(=O)c3cc2O)nn1)[C@H]1C[C@@H]2CC[C@@H](N2)[C@H]1C [Compound 193],EC50,SMN2 Protein,0.01 to 15 nM
same,IC50,"[1]; Homo sapiens, Fibroblast",0.01 to 15 nM
Cc1cnc2cc(O)c(-c3ncc(N(C)[C@@H]4CC5CCCC(N5)[C@@H]4F)nn3)cc2n1 (stereo partly drawn) [Compound 159],EC50,SMN2 Protein,0.01 to 15 nM
same,IC50,"[1]; Homo sapiens, Fibroblast",16 to 50 nM
CCn1ccc2cc(-c3ncc(N(C)[C@H]4C[C@@H]5CCCC(N5)[C@H]4F)nn3)c(O)cc2c1=O [Compound 121],EC50,SMN2 Protein,0.01 to 15 nM
same,IC50,"[1]; Homo sapiens, Fibroblast",0.01 to 15 nM
